Test system: S. aureus C0032
Test: Checkerboard assay of 83 with kanamycin A
Type: cell-based
Settings: for MIC of kanamycin A: 0.125 µg mL^−1 imipenem, 18 h at 37 °C; for checkerboard well reading (growth): Supp. Figure 3 C

Clc1cnc2[nH]ccc2c1-c1ccn[nH]1 [Compound 83]
MIC of kanamycin A ([83] 2 µg mL^−1): 4096 µg/mL
MIC of kanamycin A ([83] 4 µg mL^−1): 4096 µg/mL
MIC of kanamycin A ([83] 8 µg mL^−1): 4096 µg/mL
MIC of kanamycin A ([83] 16 µg mL^−1): 4096 µg/mL
MIC of kanamycin A ([83] 32 µg mL^−1): 2048 µg/mL
MIC of kanamycin A ([83] 64 µg mL^−1): 2048 µg/mL
MIC of kanamycin A ([83] 128 µg mL^−1): 2048 µg/mL
checkerboard well reading (growth) (83 1 µg.mL-1, kanamycin A 0 µg.mL-1): 0.496
checkerboard well reading (growth) (83 1 µg.mL-1, kanamycin A 2 µg.mL-1): 0.320
checkerboard well reading (growth) (83 1 µg.mL-1, kanamycin A 4 µg.mL-1): 0.317
checkerboard well reading (growth) (83 1 µg.mL-1, kanamycin A 8 µg.mL-1): 0.300
checkerboard well reading (growth) (83 1 µg.mL-1, kanamycin A 16 µg.mL-1): 0.287
checkerboard well reading (growth) (83 1 µg.mL-1, kanamycin A 32 µg.mL-1): 0.279
checkerboard well reading (growth) (83 1 µg.mL-1, kanamycin A 64 µg.mL-1): 0.255
checkerboard well reading (growth) (83 1 µg.mL-1, kanamycin A 128 µg.mL-1): 0.294
checkerboard well reading (growth) (83 2 µg.mL-1, kanamycin A 0 µg.mL-1): 0.442
checkerboard well reading (growth) (83 2 µg.mL-1, kanamycin A 2 µg.mL-1): 0.315
checkerboard well reading (growth) (83 2 µg.mL-1, kanamycin A 4 µg.mL-1): 0.311
checkerboard well reading (growth) (83 2 µg.mL-1, kanamycin A 8 µg.mL-1): 0.299
checkerboard well reading (growth) (83 2 µg.mL-1, kanamycin A 16 µg.mL-1): 0.295
checkerboard well reading (growth) (83 2 µg.mL-1, kanamycin A 32 µg.mL-1): 0.268
checkerboard well reading (growth) (83 2 µg.mL-1, kanamycin A 64 µg.mL-1): 0.246
checkerboard well reading (growth) (83 2 µg.mL-1, kanamycin A 128 µg.mL-1): 0.245
checkerboard well reading (growth) (83 4 µg.mL-1, kanamycin A 0 µg.mL-1): 0.451
checkerboard well reading (growth) (83 4 µg.mL-1, kanamycin A 2 µg.mL-1): 0.356
checkerboard well reading (growth) (83 4 µg.mL-1, kanamycin A 4 µg.mL-1): 0.318
checkerboard well reading (growth) (83 4 µg.mL-1, kanamycin A 8 µg.mL-1): 0.313
checkerboard well reading (growth) (83 4 µg.mL-1, kanamycin A 16 µg.mL-1): 0.286
checkerboard well reading (growth) (83 4 µg.mL-1, kanamycin A 32 µg.mL-1): 0.267
checkerboard well reading (growth) (83 4 µg.mL-1, kanamycin A 64 µg.mL-1): 0.243
checkerboard well reading (growth) (83 4 µg.mL-1, kanamycin A 128 µg.mL-1): 0.258
checkerboard well reading (growth) (83 8 µg.mL-1, kanamycin A 0 µg.mL-1): 0.402
checkerboard well reading (growth) (83 8 µg.mL-1, kanamycin A 2 µg.mL-1): 0.304
checkerboard well reading (growth) (83 8 µg.mL-1, kanamycin A 4 µg.mL-1): 0.300
checkerboard well reading (growth) (83 8 µg.mL-1, kanamycin A 8 µg.mL-1): 0.292
checkerboard well reading (growth) (83 8 µg.mL-1, kanamycin A 16 µg.mL-1): 0.282
checkerboard well reading (growth) (83 8 µg.mL-1, kanamycin A 32 µg.mL-1): 0.271
checkerboard well reading (growth) (83 8 µg.mL-1, kanamycin A 64 µg.mL-1): 0.244
checkerboard well reading (growth) (83 8 µg.mL-1, kanamycin A 128 µg.mL-1): 0.258
checkerboard well reading (growth) (83 16 µg.mL-1, kanamycin A 0 µg.mL-1): 0.581
checkerboard well reading (growth) (83 16 µg.mL-1, kanamycin A 2 µg.mL-1): 0.303
checkerboard well reading (growth) (83 16 µg.mL-1, kanamycin A 4 µg.mL-1): 0.295
checkerboard well reading (growth) (83 16 µg.mL-1, kanamycin A 8 µg.mL-1): 0.293
checkerboard well reading (growth) (83 16 µg.mL-1, kanamycin A 16 µg.mL-1): 0.274
checkerboard well reading (growth) (83 16 µg.mL-1, kanamycin A 32 µg.mL-1): 0.258
checkerboard well reading (growth) (83 16 µg.mL-1, kanamycin A 64 µg.mL-1): 0.242
checkerboard well reading (growth) (83 16 µg.mL-1, kanamycin A 128 µg.mL-1): 0.200
checkerboard well reading (growth) (83 32 µg.mL-1, kanamycin A 0 µg.mL-1): 0.378
checkerboard well reading (growth) (83 32 µg.mL-1, kanamycin A 2 µg.mL-1): 0.299
checkerboard well reading (growth) (83 32 µg.mL-1, kanamycin A 4 µg.mL-1): 0.294
checkerboard well reading (growth) (83 32 µg.mL-1, kanamycin A 8 µg.mL-1): 0.273
checkerboard well reading (growth) (83 32 µg.mL-1, kanamycin A 16 µg.mL-1): 0.281
checkerboard well reading (growth) (83 32 µg.mL-1, kanamycin A 32 µg.mL-1): 0.249
checkerboard well reading (growth) (83 32 µg.mL-1, kanamycin A 64 µg.mL-1): 0.215
checkerboard well reading (growth) (83 32 µg.mL-1, kanamycin A 128 µg.mL-1): 0.082
checkerboard well reading (growth) (83 64 µg.mL-1, kanamycin A 0 µg.mL-1): 0.357
checkerboard well reading (growth) (83 64 µg.mL-1, kanamycin A 2 µg.mL-1): 0.295
checkerboard well reading (growth) (83 64 µg.mL-1, kanamycin A 4 µg.mL-1): 0.275
checkerboard well reading (growth) (83 64 µg.mL-1, kanamycin A 8 µg.mL-1): 0.274
checkerboard well reading (growth) (83 64 µg.mL-1, kanamycin A 16 µg.mL-1): 0.256
checkerboard well reading (growth) (83 64 µg.mL-1, kanamycin A 32 µg.mL-1): 0.227
checkerboard well reading (growth) (83 64 µg.mL-1, kanamycin A 64 µg.mL-1): 0.165
checkerboard well reading (growth) (83 64 µg.mL-1, kanamycin A 128 µg.mL-1): 0.053
checkerboard well reading (growth) (83 128 µg.mL-1, kanamycin A 0 µg.mL-1): 0.433
checkerboard well reading (growth) (83 128 µg.mL-1, kanamycin A 2 µg.mL-1): 0.365
checkerboard well reading (growth) (83 128 µg.mL-1, kanamycin A 4 µg.mL-1): 0.303
checkerboard well reading (growth) (83 128 µg.mL-1, kanamycin A 8 µg.mL-1): 0.296
checkerboard well reading (growth) (83 128 µg.mL-1, kanamycin A 16 µg.mL-1): 0.283
checkerboard well reading (growth) (83 128 µg.mL-1, kanamycin A 32 µg.mL-1): 0.276
checkerboard well reading (growth) (83 128 µg.mL-1, kanamycin A 64 µg.mL-1): 0.204
checkerboard well reading (growth) (83 128 µg.mL-1, kanamycin A 128 µg.mL-1): 0.066
Impact of 83 alone on bacterial growth (absence of antibiotics, 83 from 0 to 128 µg mL^−1 (585 µM)): no impact on bacterial growth

— PMC12749166, “Fragment-based drug design of a bacterial kinase inhibitor capable of increasing the antibiotic sensitivity of clinical isolates” (Communications Chemistry, 2025)
